According to PubChem BioAssay (NCI):
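How tested: cells in 96-well plates exposed to compound for 48 hours at five concentrations. TGI denotes the concentration required for complete inhibition of growth.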

Tests used:
Experiment in all cases: NCI-60 cell line screen, 48 h
HCC-2998 colon = system: HCC-2998 colon
MDA-MB-435 = system: MDA-MB-435
RPMI-8226 leukemia = system: RPMI-8226 leukemia
UACC-62 melanoma = system: UACC-62 melanoma
SK-MEL-2 melanoma = system: SK-MEL-2 melanoma
U251 CNS = system: U251 CNS
UO-31 renal = system: UO-31 renal
BT-549 breast = system: BT-549 breast
ACHN renal = system: ACHN renal
MOLT-4 leukemia = system: MOLT-4 leukemia
HS 578T breast = system: HS 578T breast
SK-MEL-28 melanoma = system: SK-MEL-28 melanoma
MDA-N = system: MDA-N
NCI-H460 lung = system: NCI-H460 lung
NCI-H226 lung = system: NCI-H226 lung
K-562 leukemia = system: K-562 leukemia
IGROV1 ovarian = system: IGROV1 ovarian
NCI-H522 lung = system: NCI-H522 lung
T-47D breast = system: T-47D breast
OVCAR-5 ovarian = system: OVCAR-5 ovarian
OVCAR-8 ovarian = system: OVCAR-8 ovarian
NCI-H23 lung = system: NCI-H23 lung
NCI/ADR-RES ovarian = system: NCI/ADR-RES ovarian
MALME-3M melanoma = system: MALME-3M melanoma
TK-10 renal = system: TK-10 renal
CAKI-1 renal = system: CAKI-1 renal
MDA-MB-231 breast = system: MDA-MB-231 breast
SNB-75 CNS = system: SNB-75 CNS
SF-539 CNS = system: SF-539 CNS
SNB-19 CNS = system: SNB-19 CNS
OVCAR-3 ovarian = system: OVCAR-3 ovarian
DU-145 prostate = system: DU-145 prostate
SK-MEL-5 melanoma = system: SK-MEL-5 melanoma
EKVX NSCLC = system: EKVX NSCLC
HT29 colon = system: HT29 colon
SW-620 colon = system: SW-620 colon
A549 NSCLC = system: A549 NSCLC
SF-268 CNS = system: SF-268 CNS
SN12C renal = system: SN12C renal
HOP-62 NSCLC = system: HOP-62 NSCLC
MCF7 breast = system: MCF7 breast
SR leukemia = system: SR leukemia
SK-OV-3 ovarian = system: SK-OV-3 ovarian
RXF 393 renal = system: RXF 393 renal
PC-3 prostate = system: PC-3 prostate
HCT-15 colon = system: HCT-15 colon
KM12 colon = system: KM12 colon
SF-295 CNS = system: SF-295 CNS
COLO 205 colon = system: COLO 205 colon
M14 melanoma = system: M14 melanoma
786-0 renal = system: 786-0 renal
HOP-92 NSCLC = system: HOP-92 NSCLC
A498 renal = system: A498 renal
CCRF-CEM leukemia = system: CCRF-CEM leukemia
LOX IMVI melanoma = system: LOX IMVI melanoma
OVCAR-4 ovarian = system: OVCAR-4 ovarian
HL-60(TB) leukemia = system: HL-60(TB) leukemia
UACC-257 melanoma = system: UACC-257 melanoma
HCT-116 colon = system: HCT-116 colon

CC(NC(=O)C(CC(=O)OCc1ccccc1)NC(=O)OCc1ccccc1)c1ccccc1 (stereo not drawn)
TGI (HCC-2998 colon): > 100 µM | TGI (MDA-MB-435): > 100 µM | TGI (RPMI-8226 leukemia): > 100 µM | TGI (UACC-62 melanoma): > 100 µM | TGI (SK-MEL-2 melanoma): > 100 µM | TGI (U251 CNS): > 100 µM | TGI (UO-31 renal): > 100 µM | TGI (BT-549 breast): > 100 µM | TGI (ACHN renal): > 100 µM | TGI (MOLT-4 leukemia): > 100 µM | TGI (HS 578T breast): > 100 µM | TGI (SK-MEL-28 melanoma): > 100 µM | TGI (MDA-N): > 100 µM | TGI (NCI-H460 lung): > 100 µM | TGI (NCI-H226 lung): > 100 µM | TGI (K-562 leukemia): > 100 µM | TGI (IGROV1 ovarian): > 100 µM | TGI (NCI-H522 lung): > 100 µM | TGI (T-47D breast): > 100 µM | TGI (OVCAR-5 ovarian): > 100 µM | TGI (OVCAR-8 ovarian): > 100 µM | TGI (NCI-H23 lung): > 100 µM | TGI (NCI/ADR-RES ovarian): > 100 µM | TGI (MALME-3M melanoma): > 100 µM | TGI (TK-10 renal): > 100 µM | TGI (CAKI-1 renal): > 100 µM | TGI (MDA-MB-231 breast): > 100 µM | TGI (SNB-75 CNS): > 100 µM | TGI (SF-539 CNS): > 100 µM | TGI (SNB-19 CNS): > 100 µM | TGI (OVCAR-3 ovarian): > 100 µM | TGI (DU-145 prostate): > 100 µM | TGI (SK-MEL-5 melanoma): > 100 µM | TGI (EKVX NSCLC): > 100 µM | TGI (HT29 colon): > 100 µM | TGI (SW-620 colon): > 100 µM | TGI (A549 NSCLC): > 100 µM | TGI (SF-268 CNS): > 100 µM | TGI (SN12C renal): > 100 µM | TGI (HOP-62 NSCLC): > 100 µM | TGI (MCF7 breast): > 100 µM | TGI (SR leukemia): > 100 µM | TGI (SK-OV-3 ovarian): > 100 µM | TGI (RXF 393 renal): > 100 µM | TGI (PC-3 prostate): > 100 µM | TGI (HCT-15 colon): > 100 µM | TGI (KM12 colon): > 100 µM | TGI (SF-295 CNS): > 100 µM | TGI (COLO 205 colon): > 100 µM | TGI (M14 melanoma): > 100 µM | TGI (786-0 renal): > 100 µM

C=C(Br)CN(C)CC(=C)Br
TGI (MDA-MB-435): > 100 µM | TGI (RPMI-8226 leukemia): > 100 µM | TGI (UACC-62 melanoma): > 100 µM | TGI (HOP-92 NSCLC): > 100 µM | TGI (SK-MEL-2 melanoma): > 100 µM | TGI (U251 CNS): > 100 µM | TGI (A498 renal): > 100 µM | TGI (UO-31 renal): > 100 µM | TGI (BT-549 breast): > 100 µM | TGI (ACHN renal): > 100 µM | TGI (MOLT-4 leukemia): > 100 µM | TGI (HS 578T breast): > 100 µM | TGI (SK-MEL-28 melanoma): > 100 µM | TGI (MDA-N): > 100 µM | TGI (NCI-H460 lung): > 100 µM | TGI (K-562 leukemia): > 100 µM | TGI (IGROV1 ovarian): > 100 µM | TGI (CCRF-CEM leukemia): > 100 µM | TGI (NCI-H522 lung): > 100 µM | TGI (T-47D breast): > 100 µM | TGI (OVCAR-5 ovarian): > 100 µM | TGI (OVCAR-8 ovarian): > 100 µM | TGI (NCI-H23 lung): > 100 µM | TGI (NCI/ADR-RES ovarian): > 100 µM | TGI (MALME-3M melanoma): > 100 µM | TGI (TK-10 renal): > 100 µM | TGI (CAKI-1 renal): > 100 µM | TGI (MDA-MB-231 breast): > 100 µM | TGI (SNB-75 CNS): > 100 µM | TGI (SNB-19 CNS): > 100 µM | TGI (OVCAR-3 ovarian): > 100 µM | TGI (DU-145 prostate): > 100 µM | TGI (SK-MEL-5 melanoma): > 100 µM | TGI (EKVX NSCLC): > 100 µM | TGI (HT29 colon): > 100 µM | TGI (SW-620 colon): > 100 µM | TGI (A549 NSCLC): > 100 µM | TGI (SF-268 CNS): > 100 µM | TGI (SN12C renal): > 100 µM | TGI (HOP-62 NSCLC): > 100 µM | TGI (MCF7 breast): > 100 µM | TGI (SR leukemia): > 100 µM | TGI (LOX IMVI melanoma): > 100 µM | TGI (OVCAR-4 ovarian): > 100 µM | TGI (SK-OV-3 ovarian): > 100 µM | TGI (HL-60(TB) leukemia): > 100 µM | TGI (UACC-257 melanoma): > 100 µM | TGI (RXF 393 renal): > 100 µM | TGI (PC-3 prostate): > 100 µM | TGI (HCT-15 colon): > 100 µM | TGI (KM12 colon): > 100 µM | TGI (SF-295 CNS): > 100 µM | TGI (HCT-116 colon): > 100000 nM | TGI (COLO 205 colon): > 100 µM | TGI (M14 melanoma): > 100 µM | TGI (786-0 renal): > 100 µM

CCCCC/C=C\C=C1\C(=O)C=C[C@@H]1C/C=C\CCCC(=O)O
TGI (MDA-MB-435): 9.16 µM | TGI (RPMI-8226 leukemia): 3.15 µM | TGI (UACC-62 melanoma): 12 µM | TGI (SK-MEL-2 melanoma): 9.85 µM | TGI (U251 CNS): 8.39 µM | TGI (A498 renal): 21.4 µM | TGI (UO-31 renal): 13.4 µM | TGI (BT-549 breast): 5.13 µM | TGI (ACHN renal): 9.48 µM | TGI (MOLT-4 leukemia): 60 µM | TGI (HS 578T breast): 13.4 µM | TGI (SK-MEL-28 melanoma): 13.9 µM | TGI (MDA-N): 7.14 µM | TGI (NCI-H460 lung): 16.5 µM | TGI (NCI-H226 lung): 14.8 µM | TGI (K-562 leukemia): 60 µM | TGI (IGROV1 ovarian): 8.93 µM | TGI (CCRF-CEM leukemia): 3.28 µM | TGI (T-47D breast): 24.5 µM | TGI (OVCAR-5 ovarian): 9.72 µM | TGI (OVCAR-8 ovarian): 3.73 µM | TGI (NCI-H23 lung): 15.5 µM | TGI (NCI/ADR-RES ovarian): 2.66 µM | TGI (MALME-3M melanoma): 25 µM | TGI (TK-10 renal): 18 µM | TGI (CAKI-1 renal): 14.9 µM | TGI (MDA-MB-231 breast): 18.7 µM | TGI (SNB-75 CNS): 17.7 µM | TGI (SF-539 CNS): 12.8 µM | TGI (SNB-19 CNS): 12.1 µM | TGI (OVCAR-3 ovarian): 9.82 µM | TGI (DU-145 prostate): 15.5 µM | TGI (SK-MEL-5 melanoma): 11.2 µM | TGI (EKVX NSCLC): 5.61 µM | TGI (HT29 colon): 12 µM | TGI (SW-620 colon): 9.09 µM | TGI (A549 NSCLC): 18.7 µM | TGI (SF-268 CNS): 13.6 µM | TGI (SN12C renal): 8.06 µM | TGI (HOP-62 NSCLC): 8.62 µM | TGI (MCF7 breast): 12.9 µM | TGI (SR leukemia): 5.53 µM | TGI (LOX IMVI melanoma): 8.19 µM | TGI (OVCAR-4 ovarian): 6.28 µM | TGI (SK-OV-3 ovarian): 14.4 µM | TGI (HL-60(TB) leukemia): 17.9 µM | TGI (UACC-257 melanoma): 14.7 µM | TGI (RXF 393 renal): 6.93 µM | TGI (PC-3 prostate): 5.13 µM | TGI (HCT-15 colon): 14.9 µM | TGI (KM12 colon): 11.9 µM | TGI (SF-295 CNS): 11.5 µM | TGI (HCT-116 colon): 2740 nM | TGI (COLO 205 colon): 9.36 µM | TGI (M14 melanoma): 15.1 µM | TGI (786-0 renal): 9.73 µM
